Where a name gives a salt, the structure may show the parent alone.
Key:
[1] = antireserpine activity: reserpine gastric ulceration; format: in vivo; conditions: p.o.; ED eliciting a first statistically significant response; calculated as base
Experimental: (§1) Also, standard pharmacological tests of antireserpine activity (on experimental hypothermia, eyelid ptosis and gastric ulceration) and potentiation of yohimbine toxicity in mice are indicative of pronounced antidepressant properties of compound IA.
(§2) The substances under study were tested in the form of salts administered p.o. The results are conventionally expressed as medium inhibition concentrations IC₅₀ (nM) and effective doses ED (eliciting a first statistically significant response) or medium effective doses ED₅₀ (mg per kg); the concentrations and effective doses are calculated as the corresponding amounts of the base.
(§3) Acute toxicity was tested in mice p.o. and medium lethal dose LD₅₀ is given. Thus, compound IA hydrogen maleate LD₅₀ 232 mg/kg. […] Reserpine hypothermia ED 10, ptosis 25, ulceration 50 mg/kg. Yohimbine, ED₅₀ 54.7 mg/kg.

[2] = tested on: NA re-uptake; assay: ³H-noradrenaline re-uptake inhibition in rat brain cortex; format: biochemical; conditions: ³H-noradrenaline 10 nM, calculated as base, read-out: NA re-uptake IC₅₀
Experimental: (§4) The reported selective action of compound IA was verified by direct comparison of ³H-5-HT (10 nM) and ³H-noradrenaline (NA, 10 nM) re-uptake in rat brain cortex; again the two sets of values were markedly differentiated in the sense of predominant 5-HT re-uptake inhibition.
as §2, §3

[3] = potentiation of yohimbine toxicity in mice; format: in vivo; conditions: Mus musculus, po, calculated as base, read-out: Yohimbine, ED₅₀
Experimental: as §1, §2, §3

[4] = target: T1, IP receptors (Rattus norvegicus, UniProt P31652); assay: inhibition of tritium-labelled imipramine binding in rat hypothalamus
T1 construct: standard biochemical tests on rat hypothalamus; from tissue; host or cells: rat hypothalamus
T1 sequence (P31652 whole entry): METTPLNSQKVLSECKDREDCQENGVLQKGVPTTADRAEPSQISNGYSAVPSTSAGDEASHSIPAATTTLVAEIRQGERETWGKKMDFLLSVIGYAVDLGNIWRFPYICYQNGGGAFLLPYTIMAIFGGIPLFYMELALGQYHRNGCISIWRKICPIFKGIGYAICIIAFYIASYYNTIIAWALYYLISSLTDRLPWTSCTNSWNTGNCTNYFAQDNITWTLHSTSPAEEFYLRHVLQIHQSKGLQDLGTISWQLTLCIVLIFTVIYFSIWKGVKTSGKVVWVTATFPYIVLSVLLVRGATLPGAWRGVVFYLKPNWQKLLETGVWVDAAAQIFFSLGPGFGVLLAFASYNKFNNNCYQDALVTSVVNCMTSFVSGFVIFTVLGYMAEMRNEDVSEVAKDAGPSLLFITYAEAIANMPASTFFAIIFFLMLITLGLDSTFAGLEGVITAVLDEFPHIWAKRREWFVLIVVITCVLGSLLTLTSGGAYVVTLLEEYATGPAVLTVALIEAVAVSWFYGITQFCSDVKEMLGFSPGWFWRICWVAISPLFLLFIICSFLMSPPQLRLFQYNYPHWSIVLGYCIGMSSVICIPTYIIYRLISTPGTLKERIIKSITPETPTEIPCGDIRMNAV
Experimental: (§5) The above compound was selected as a preferred structure from numerous related new substances on the basis of pharmacological evaluation.
as §2, §3

[5] = acute toxicity in mice p.o.; conditions: mouse, in vivo, po, read-out: LD₅₀
Experimental: as §3

[6] = antireserpine activity: reserpine eyelid ptosis; format: in vivo; conditions: p.o.; ED eliciting a first statistically significant response; calculated as base
Experimental: as §1, §2, §3

[7] = antireserpine activity: reserpine hypothermia; format: in vivo; conditions: p.o.; ED eliciting a first statistically significant response; calculated as base
Experimental: as §1, §2, §3

[8] = target: T2, DP receptors (Rattus norvegicus, UniProt Q63380); assay: inhibition of tritium-labelled desipramine binding in rat hypothalamus
T2 construct: standard biochemical tests on rat hypothalamus; from tissue; host or cells: rat hypothalamus
T2 sequence (Q63380 1-617): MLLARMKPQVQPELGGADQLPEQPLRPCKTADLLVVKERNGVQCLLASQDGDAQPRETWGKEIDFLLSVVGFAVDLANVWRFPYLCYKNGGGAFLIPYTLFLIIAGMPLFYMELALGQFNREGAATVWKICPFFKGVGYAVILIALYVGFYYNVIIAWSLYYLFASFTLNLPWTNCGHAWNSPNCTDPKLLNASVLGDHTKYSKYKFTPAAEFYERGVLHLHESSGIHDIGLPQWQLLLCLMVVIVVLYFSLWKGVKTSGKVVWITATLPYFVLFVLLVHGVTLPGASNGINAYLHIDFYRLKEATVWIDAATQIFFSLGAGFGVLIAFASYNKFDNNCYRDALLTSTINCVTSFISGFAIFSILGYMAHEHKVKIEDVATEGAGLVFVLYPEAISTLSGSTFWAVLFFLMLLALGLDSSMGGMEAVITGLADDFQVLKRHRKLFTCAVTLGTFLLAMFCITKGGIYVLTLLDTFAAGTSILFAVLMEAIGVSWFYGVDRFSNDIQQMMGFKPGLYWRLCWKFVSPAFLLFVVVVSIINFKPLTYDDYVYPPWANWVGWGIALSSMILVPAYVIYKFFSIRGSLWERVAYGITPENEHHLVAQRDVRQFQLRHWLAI
Experimental: as §5, §2, §3

[9] = tested on: 5-HT re-uptake; assay: ³H-5-HT re-uptake inhibition in rat brain cortex; format: biochemical; conditions: ³H-5-HT 10 nM, calculated as base, read-out: 5-HT re-uptake IC₅₀
Experimental: as §4, §2, §3

In the case of `CN(C)Cc1ccccc1Sc1cccc(O)c1` [compound IA hydrogen maleate, N,N-Dimethyl-2-(3-hydroxyphenylthio)benzylamine], the “Reserpine ulceration ED” value [1] is reported as 50 mg/kg, the IC50 [2] is reported as 506 µM and the ED50 [3] is reported as 54.7 mg/kg. For the same molecule, the IC50 [4] was 0.00424 µM, the LD50 [5] was 232 mg/kg and the “Reserpine ptosis ED” value [6] was 25 mg/kg. The “Reserpine hypothermia ED” value [7] was 10 mg/kg, the IC50 [8] was 12.9 µM and the IC50 [9] was 0.00058 µM.

— EP0396827A1, “2-Phenylthiobenzylamine dervivatives and acid addition salts thereof” (SPOFA Spojené Podniky Pro Zdravotnickou Vyrobu, priority 1989, dated 1990)
